Inconclusive results and toxic doses are left out. Rule as the data show it: active = T/C of 150% or more; inactive = T/C below 125%. Square brackets hold non-standard residues; d marks the D form. Peptide text beside a SMILES is read from it. * marks the point of attachment. ξ: configuration not given here. Cbz = O=C(OCc1ccccc1)*; ξP = O=C(O)C1CCCN1
Test system: L1210 leukemia ip in BDF1 mice, survival T/C
Assay: NCI In Vivo Anticancer Drug Screen. Data for tumor model L1210 Leukemia (intraperitoneal) in B6D2F1 (BDF1) mice
Conditions: endpoint: mean survival time, higher = longer survival
Method in brief: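 Transplanted-tumor mice were given test agent; controls received vehicle only. Survival readings from the two groups were divided (treated over control).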

[1] = dose: 50.0 mg/kg/injection, schedule: Q01DX001 (ip), vehicle: saline
[2] = dose: 100.0 mg/kg/injection, schedule: Q01DX001 (ip), vehicle: saline
[3] = dose: 200.0 mg/kg/injection, schedule: Q01DX001 (ip), vehicle: saline
[4] = dose: 400.0 mg/kg/injection, schedule: Q01DX001 (ip), vehicle: saline
[5] = dose: 50.0 mg/kg/injection, schedule: Q01DX009 (ip), vehicle: saline
[6] = dose: 100.0 mg/kg/injection, schedule: Q01DX009 (ip), vehicle: saline with Tween-80
[7] = dose: 100.0 mg/kg/injection, schedule: Q01DX009 (ip), vehicle: saline
[8] = dose: 100.0 mg/kg/injection, schedule: Q04DX003 (ip), vehicle: saline with Tween-80
[9] = dose: 200.0 mg/kg/injection, schedule: Q04DX003 (ip), vehicle: saline with Tween-80
[10] = dose: 200.0 mg/kg/injection, schedule: Q01DX009 (ip), vehicle: saline
[11] = dose: 100.0 mg/kg/injection, schedule: Q04DX003 (ip), vehicle: Klucel (hydroxypropylcellulose) (HPC)
[12] = dose: 200.0 mg/kg/injection, schedule: Q04DX003 (ip), vehicle: Klucel (hydroxypropylcellulose) (HPC)
[13] = dose: 200.0 mg/kg/injection, schedule: Q01DX009 (ip), vehicle: saline with Tween-80
[14] = dose: 400.0 mg/kg/injection, schedule: Q01DX009 (ip), vehicle: saline with Tween-80

Measured: T/C

O=C(CCCC(=O)N/N=C/c1cc(Cl)ccc1[N+](=O)[O-])N/N=C\c1cc(Cl)ccc1[N+](=O)[O-]
inactive: [1] 98 % of control | [2] 90 % of control | [3] 95 % of control | [4] 98 % of control

CN(C)CCCN1c2ccccc2C(C)(C)c2ccccc21
inactive: [1] 96 % of control | dose: 50.0 mg/kg/injection, schedule: Q01DX009 (ip), vehicle: saline with Tween-80 104 % of control | [5] 106 % of control | [2] 96 % of control | [6] 116 % of control | [7] 118 % of control | [8] 107 % of control | [3] 104 % of control | [9] 102 % of control

NC(=O)NC1CC1(c1ccccc1)c1ccccc1 (stereo not drawn)
inactive: dose: 42.0 mg/kg/injection, schedule: Q01DX009 (ip), vehicle: other 105 % of control | dose: 72.0 mg/kg/injection, schedule: Q01DX009 (ip), vehicle: other 111 % of control | dose: 120.0 mg/kg/injection, schedule: Q01DX009 (ip), vehicle: other 105 % of control | dose: 200.0 mg/kg/injection, schedule: Q01DX009 (ip), vehicle: other 93 % of control

CC(O)C(O)C(N)CC=O (stereo not drawn)
inactive: dose: 5.0 mg/kg/injection, schedule: Q01DX001 (ip), vehicle: saline 101 % of control | dose: 10.0 mg/kg/injection, schedule: Q01DX001 (ip), vehicle: saline 113 % of control | dose: 20.0 mg/kg/injection, schedule: Q01DX001 (ip), vehicle: saline 97 % of control | dose: 40.0 mg/kg/injection, schedule: Q01DX001 (ip), vehicle: saline 98 % of control | [7] 102 % of control | [10] 97 % of control | dose: 400.0 mg/kg/injection, schedule: Q01DX009 (ip), vehicle: saline 97 % of control

Cc1cc(=O)[nH]c(N/N=C/c2ccccc2)n1
inactive: dose: 100.0 mg/kg/injection, schedule: Q01DX009 (ip), vehicle: gum acacia 88 % of control | dose: 100.0 mg/kg/injection, schedule: Q04DX003 (ip), vehicle: gum acacia 93 % of control | dose: 200.0 mg/kg/injection, schedule: Q04DX003 (ip), vehicle: gum acacia 97 % of control | dose: 400.0 mg/kg/injection, schedule: Q01DX009 (ip), vehicle: gum acacia 91 % of control | dose: 400.0 mg/kg/injection, schedule: Q04DX003 (ip), vehicle: gum acacia 93 % of control

CC(=O)OCC1OC(N2c3ccccc3CC2C)C(OC(C)=O)C(OC(C)=O)C1OC(C)=O (stereo not drawn)
inactive: dose: 25.0 mg/kg/injection, schedule: Q01DX001 (ip), vehicle: saline 94 % of control | [1] 94 % of control | [2] 94 % of control

O=c1[nH]c(=S)[nH]c2c1CP(=S)(c1ccccc1)CC2 (stereo not drawn)
inactive: dose: 100.0 mg/kg/injection, schedule: Q04DX002 (ip), vehicle: saline with Tween-80 106 % of control | dose: 200.0 mg/kg/injection, schedule: Q04DX002 (ip), vehicle: saline with Tween-80 100 % of control | dose: 400.0 mg/kg/injection, schedule: Q04DX002 (ip), vehicle: saline with Tween-80 100 % of control

CCOP(=O)(Cc1ccc(N(CCI)CCI)cc1)OCC
inactive: dose: 75.0 mg/kg/injection, schedule: Q01DX001 (ip), vehicle: saline 116 % of control | dose: 150.0 mg/kg/injection, schedule: Q01DX001 (ip), vehicle: saline 116 % of control

NC(CSS(=O)(=O)O)=NCCCCCN=C(N)CSS(=O)(=O)O
inactive: dose: 12.5 mg/kg/injection, schedule: Q04DX003 (ip), vehicle: saline with Tween-80 108 % of control | dose: 25.0 mg/kg/injection, schedule: Q04DX003 (ip), vehicle: saline with Tween-80 102 % of control | dose: 50.0 mg/kg/injection, schedule: Q04DX003 (ip), vehicle: saline with Tween-80 96 % of control

CCC1=C(C)C(=O)C2CCCCC2C1=O (stereo not drawn)
inactive: dose: 100.0 mg/kg/injection, schedule: Q01DX001 (ip), vehicle: Klucel (hydroxypropylcellulose) (HPC) 105 % of control | dose: 100.0 mg/kg/injection, schedule: Q01DX009 (ip), vehicle: saline sonified 95 % of control | dose: 200.0 mg/kg/injection, schedule: Q01DX001 (ip), vehicle: Klucel (hydroxypropylcellulose) (HPC) 111 % of control | dose: 200.0 mg/kg/injection, schedule: Q01DX009 (ip), vehicle: saline sonified 97 % of control | dose: 400.0 mg/kg/injection, schedule: Q01DX001 (ip), vehicle: Klucel (hydroxypropylcellulose) (HPC) 96 % of control | dose: 400.0 mg/kg/injection, schedule: Q01DX009 (ip), vehicle: saline sonified 92 % of control

c1ccc(C[N+]23CCC(CC2)CC3)cc1
inactive: dose: 3.13 mg/kg/injection, schedule: Q01DX009 (ip), vehicle: saline 95 % of control | dose: 6.25 mg/kg/injection, schedule: Q01DX009 (ip), vehicle: saline 99 % of control | dose: 12.5 mg/kg/injection, schedule: Q01DX009 (ip), vehicle: saline 101 % of control

Cc1c(C(=O)/C=C/c2ccccc2)cc([N+](=O)[O-])cc1[N+](=O)[O-]
inactive: [1] 92 % of control | [2] 98 % of control | [3] 100 % of control | [4] 93 % of control

CC(C)(CO)NCC(C)(C)[N+](=O)[O-]
inactive: [11] 103 % of control | [12] 102 % of control | dose: 400.0 mg/kg/injection, schedule: Q04DX003 (ip), vehicle: Klucel (hydroxypropylcellulose) (HPC) 112 % of control

O=C(NCC(=O)N1CCCC1C(=O)O)OCc1ccccc1 (stereo not drawn) (Cbz-Gly-[ξP]-OH)
inactive: dose: 50.0 mg/kg/injection, schedule: Q01DX009 (ip), vehicle: Klucel (hydroxypropylcellulose) (HPC) 93 % of control | dose: 50.0 mg/kg/injection, schedule: Q04DX003 (ip), vehicle: Klucel (hydroxypropylcellulose) (HPC) 96 % of control | dose: 100.0 mg/kg/injection, schedule: Q01DX009 (ip), vehicle: Klucel (hydroxypropylcellulose) (HPC) 97 % of control | [11] 91 % of control | dose: 200.0 mg/kg/injection, schedule: Q01DX009 (ip), vehicle: Klucel (hydroxypropylcellulose) (HPC) 93 % of control | [12] 93 % of control

CC(=O)/C=C/c1ccccc1O
inactive: dose: 75.0 mg/kg/injection, schedule: Q04DX002 (ip), vehicle: gum acacia 98 % of control | dose: 150.0 mg/kg/injection, schedule: Q04DX002 (ip), vehicle: gum acacia 100 % of control | dose: 300.0 mg/kg/injection, schedule: Q04DX002 (ip), vehicle: gum acacia 100 % of control

O=C/C=C\c1ccccc1O
inactive: [2] 105 % of control | [3] 105 % of control

CCOC(=O)C(C(=O)OCC)C(=O)c1cccc2ccc3ccccc3c12
inactive: [8] 96 % of control | [9] 96 % of control | dose: 400.0 mg/kg/injection, schedule: Q04DX003 (ip), vehicle: saline with Tween-80 97 % of control

CNC(=S)N/N=C/C(=N\NC(=S)NC)C(O)C(O)C(O)C(O)CO (stereo not drawn)
inactive: [5] 100 % of control | [2] 100 % of control | [7] 91 % of control | [3] 97 % of control | [10] 100 % of control

Cc1cc(OC(=O)Nc2cccc(Cl)c2)ccc1Cl
inactive: [6] 91 % of control | [13] 93 % of control | [14] 95 % of control

C1CCC2CC3CCCCC3CC2C1 (stereo not drawn)
inactive: [2] 90 % of control | [4] 102 % of control

O=C(O)CP(=O)(O)O
inactive: dose: 75.0 mg/kg/injection, schedule: Q04DX003 (ip), vehicle: saline 102 % of control | dose: 150.0 mg/kg/injection, schedule: Q04DX003 (ip), vehicle: saline 102 % of control | dose: 300.0 mg/kg/injection, schedule: Q04DX003 (ip), vehicle: saline 93 % of control

CC(CCc1ccccc1)N(C)C(=O)CNC(=O)CN1C(=O)c2ccccc2C1=O (stereo not drawn)
inactive: [2] 96 % of control | [3] 92 % of control

Clc1nc(Cl)c(Nc2ccn[nH]2)nc1Cl
inactive: [6] 91 % of control | [13] 86 % of control | [14] 94 % of control

From PubChem BioAssay AID248 (DTP/NCI, 2004)
